{"source": "patent US5378836A", "about": "“Rapamycin oximes and hydrazones” (American Home Products Corporation, priority 1993, dated 1995)", "key": {"[1]": {"tested_on": "thymocytes (T-cell proliferation)", "test": "comitogen-induced thymocyte proliferation procedure (LAF)", "type": "cell-based, BALB/c mice", "conditions": "Mus musculus; for inhibition at 0.1 µM: T-cell, read-out: LAF % Inhib. (percent inhibition of T-cell proliferation); for IC50: Thymocyte, read-out: LAF IC50", "protocol": "(§1) Immunosuppressive activity for representative compounds of this invention was evaluated in an in vitro standard pharmacological test procedure to measure lymphocyte proliferation (LAF) and in an in vivo standard pharmacological test procedure which evaluated the survival time of a pinch skin graft.\nThe comitogen-induced thymocyte proliferation procedure (LAF) was used as an in vitro measure of the immunosuppressive effects of representative compounds. Briefly, cells from the thymus of normal BALB/c mice are cultured for 72 hours with PHA and IL-1 and pulsed with tritiated thymidine during the last six hours. Cells are cultured with and without various concentrations of rapamycin, cyclosporin A, or test compound. Cells are harvested and incorporated radioactivity is determined. Inhibition of lymphoproliferation is assessed as percent change in counts per minute from non-drug treated controls. For each compound evaluated, rapamycin was also evaluated for the purpose of comparison. An IC50 was obtained for each test compound as well as for rapamycin."}, "[2]": {"tested_on": "pinch skin graft from male BAB/c donors transplanted to male C3 H(H-2K) recipients", "test": "survival time of a pinch skin graft", "type": "in vivo, male C3 H(H-2K) recipients (mouse strain)", "conditions": "dose of 4 mg/kg, intraperitoneally or orally; untreated control usually rejected within 6-7 days", "protocol": "as §1\nRepresentative compounds of this invention were also evaluated in an in vivo test procedure designed to determine the survival time of pinch skin graft from male BAB/c donors transplanted to male C3 H(H-2K) recipients. The method is adapted from Billingham R. E. and Medawar P. B., J. Exp. Biol. 28:385-402, (1951). Briefly, a pinch skin graft from the donor was grafted on the dorsum of the recipient as a allograft, and an isograft was used as control in the same region. The recipients were treated with either varying concentrations of test compounds intraperitoneally or orally. Rapamycin was used as a test control. Untreated recipients serve as rejection control. The graft was monitored daily and observations were recorded until the graft became dry and formed a blackened scab. This was considered as the rejection day. The mean graft survival time (number of days±S.D.) of the drug treatment group was compared with the control group. […] Results are expressed as the mean survival time in days. Untreated (control) pinch skin grafts are usually rejected within 6-7 days. The results shown in Table 1 are based on a dose of 4 mg/kg of test compound. A survival time of 12.0±1.7 days was obtained for rapamycin at 4 mg/kg."}, "[3]": {"conditions": "alone or in combination with picibanil; cited from earlier work"}, "[4]": {"tested_on": "Candida albicans", "conditions": "both in vitro and in vivo; cited from earlier work"}, "[5]": {"tested_on": "experimental allergic encephalomyelitis model", "conditions": "a model for multiple sclerosis; cited from earlier work"}, "[6]": {"tested_on": "IgE-like antibodies", "conditions": "in vivo; cited from earlier work"}, "[7]": {"conditions": "thymus cells cultured 72 h with PHA and IL-1, tritiated thymidine during last six hours"}}, "note": "Counter-ions that a name gives are not always drawn. Like-named read-outs stand apart in the source and are kept apart here."}
{"smiles": "CO[C@H]1C[C@@H]2CC[C@@H](C)[C@@](O)(O2)C(=O)C(=O)N2CCCC[C@H]2C(=O)O[C@H]([C@H](C)C[C@@H]2CC[C@@H](OC(=O)NCCc3ccccn3)[C@H](OC)C2)CC(=NO)[C@H](C)/C=C(\\C)[C@@H](O)[C@@H](OC)C(=O)[C@H](C)C[C@H](C)/C=C/C=C/C=C/1C", "note": "[Example 2, Rapamycin 27-oxime, 42-ester with 2-(pyridin-2-yl)-ethyl-carbamic acid]", "values": [{"measurement": "inhibition at 0.1 µM", "setting": "[1]", "result": 94, "unit": "%"}, {"measurement": "IC50", "setting": "[1]; [7]", "result": 0.6, "unit": "nM"}, {"measurement": "Skin Graft mean survival time (days ± SD)", "setting": "[2]", "result": "8.0 ± 0.6", "unit": "days"}]}
{"smiles": "CO[C@H]1C[C@@H]2CC[C@@H](C)[C@@](O)(O2)C(=O)C(=O)N2CCCC[C@H]2C(=O)O[C@H]([C@H](C)C[C@@H]2CC[C@@H](OC(=O)NCCO)[C@H](OC)C2)CC(=NO)[C@H](C)/C=C(\\C)[C@@H](O)[C@@H](OC)C(=O)[C@H](C)C[C@H](C)/C=C/C=C/C=C/1C", "note": "[Example 4, Rapamycin 27-oxime, 42-ester with 2-hydroxyethyl carbamic acid]", "values": [{"measurement": "inhibition at 0.1 µM", "setting": "[1]", "result": 89, "unit": "%"}, {"measurement": "IC50", "setting": "[1]; [7]", "result": 17.8, "unit": "nM"}]}
{"smiles": "CO[C@H]1C[C@@H]2CC[C@@H](C)[C@@](O)(O2)C(=O)C(=O)N2CCCC[C@H]2C(=O)O[C@H]([C@H](C)C[C@@H]2CC[C@@H](OS(=O)(=O)O)[C@H](OC)C2)CC(=NO)[C@H](C)/C=C(\\C)[C@@H](O)[C@@H](OC)C(=O)[C@H](C)C[C@H](C)/C=C/C=C/C=C/1C", "note": "[Example 6, Rapamycin 27-oxime, 42-sulfate ester pyridine salt]", "values": [{"measurement": "inhibition at 0.1 µM", "setting": "[1]", "result": 71, "unit": "%"}, {"measurement": "Skin Graft mean survival time (days ± SD)", "setting": "[2]", "result": "9.8 ± 0.4", "unit": "days"}]}
{"smiles": "CO[C@H]1C[C@@H]2CC[C@@H](C)[C@@](O)(O2)C(=O)C(=O)N2CCCC[C@H]2C(=O)O[C@H]([C@H](C)C[C@@H]2CC[C@@H](OC(N)=O)[C@H](OC)C2)CC(=NO)[C@H](C)/C=C(\\C)[C@@H](O)[C@@H](OC)C(=O)[C@H](C)C[C@H](C)/C=C/C=C/C=C/1C", "note": "[Example 8, Rapamycin 27-oxime, 42-ester with carbamic acid]", "values": [{"measurement": "inhibition at 0.1 µM", "setting": "[1]", "result": 87, "unit": "%"}, {"measurement": "IC50", "setting": "[1]; [7]", "result": 13.9, "unit": "nM"}, {"measurement": "Skin Graft mean survival time (days ± SD)", "setting": "[2]", "result": "7.0 ± 0.0", "unit": "days"}]}
{"smiles": "CO[C@H]1C[C@@H]2CC[C@@H](C)[C@@](O)(O2)C(=O)C(=O)N2CCCC[C@H]2C(=O)O[C@H]([C@H](C)C[C@@H]2CC[C@@H](OS(=O)(=O)c3cccc4cccnc34)[C@H](OC)C2)CC(=NO)[C@H](C)/C=C(\\C)[C@@H](O)[C@@H](OC)C(=O)[C@H](C)C[C@H](C)/C=C/C=C/C=C/1C", "note": "[Example 10, Rapamycin 27-oxime, 42-ester with 8-quinolinesulfonic acid]", "values": [{"measurement": "inhibition at 0.1 µM", "setting": "[1]", "result": 20, "unit": "%"}, {"measurement": "IC50", "setting": "[1]; [7]", "result": 300, "unit": "nM"}]}
{"smiles": "CO/N=C1\\C[C@@H]([C@H](C)C[C@@H]2CC[C@@H](OS(=O)(=O)c3cccc4cccnc34)[C@H](OC)C2)OC(=O)[C@@H]2CCCCN2C(=O)C(=O)[C@]2(O)O[C@@H](CC[C@H]2C)C[C@H](OC)/C(C)=C/C=C/C=C/[C@@H](C)C[C@@H](C)C(=O)[C@H](OC)[C@H](O)/C(C)=C/[C@H]1C", "note": "[Example 11, Rapamycin (E)-27-O-(methyl)oxime, 42-ester with 8-quinolinesulfonic acid]", "values": [{"measurement": "inhibition at 0.1 µM", "setting": "[1]", "result": 17, "unit": "%"}, {"measurement": "IC50", "setting": "[1]; [7]", "result": 255, "unit": "nM"}]}
{"smiles": "CO/N=C1/C[C@@H]([C@H](C)C[C@@H]2CC[C@@H](OS(=O)(=O)c3cccc4cccnc34)[C@H](OC)C2)OC(=O)[C@@H]2CCCCN2C(=O)C(=O)[C@]2(O)O[C@@H](CC[C@H]2C)C[C@H](OC)/C(C)=C/C=C/C=C/[C@@H](C)C[C@@H](C)C(=O)[C@H](OC)[C@H](O)/C(C)=C/[C@H]1C", "note": "[Example 12, Rapamycin (Z)-27-O-(methyl)oxime, 42-ester with 8-quinolinesulfonic acid]", "values": [{"measurement": "inhibition at 0.1 µM", "setting": "[1]", "result": 30, "unit": "%"}, {"measurement": "IC50", "setting": "[1]; [7]", "result": 210, "unit": "nM"}]}
{"smiles": "CO/N=C1/C[C@@H]([C@H](C)C[C@@H]2CC[C@@H](OC(=O)Nc3ccc([N+](=O)[O-])cc3)[C@H](OC)C2)OC(=O)[C@@H]2CCCCN2C(=O)C(=O)[C@]2(O)O[C@@H](CC[C@H]2C)C[C@H](OC)/C(C)=C/C=C/C=C/[C@@H](C)C[C@@H](C)C(=O)[C@H](OC)[C@H](O)/C(C)=C/[C@H]1C", "note": "[Example 13, Rapamycin (Z)-27-O-(methyl)oxime, 42-ester with 4-nitrophenylcarbamic acid]", "values": [{"measurement": "inhibition at 0.1 µM", "setting": "[1]", "result": 14, "unit": "%"}, {"measurement": "IC50", "setting": "[1]; [7]", "result": 580, "unit": "nM"}]}
{"smiles": "CO/N=C1/C[C@@H]([C@H](C)C[C@@H]2CC[C@@H](OS(=O)(=O)c3ccc(C)cc3)[C@H](OC)C2)OC(=O)[C@@H]2CCCCN2C(=O)C(=O)[C@]2(O)O[C@@H](CC[C@H]2C)C[C@H](OC)/C(C)=C/C=C/C=C/[C@@H](C)C[C@@H](C)C(=O)[C@H](OC)[C@H](O)/C(C)=C/[C@H]1C", "note": "[Example 14, Rapamycin (Z)-27-O-(methyl)oxime, 42-ester with 4-methylbenzenesulfonic acid]", "values": [{"measurement": "inhibition at 0.1 µM", "setting": "[1]", "result": 20, "unit": "%"}, {"measurement": "IC50", "setting": "[1]; [7]", "result": "> 1000", "unit": "nM"}]}
{"smiles": "CCOC(C)O[C@@H]1CC[C@@H](C[C@@H](C)[C@@H]2C/C(=N/OC)[C@H](C)/C=C(\\C)[C@@H](O)[C@@H](OC)C(=O)[C@H](C)C[C@H](C)/C=C/C=C/C=C(\\C)[C@@H](OC)C[C@@H]3CC[C@@H](C)[C@@](O)(O3)C(=O)C(=O)N3CCCC[C@H]3C(=O)O2)C[C@H]1OC", "note": "(stereo partly drawn) [Example 16, 42-O-(1-Ethoxy-ethyl)-rapamycin-(Z)-27-O-(methyl)oxime]", "values": [{"measurement": "inhibition at 0.1 µM", "setting": "[1]", "result": 47, "unit": "%"}, {"measurement": "IC50", "setting": "[1]; [7]", "result": 100, "unit": "nM"}]}
{"smiles": "CCOC(C)O[C@@H]1CC[C@@H](C[C@@H](C)[C@@H]2C/C(=N\\OC)[C@H](C)/C=C(\\C)[C@@H](O)[C@@H](OC)C(=O)[C@H](C)C[C@H](C)/C=C/C=C/C=C(\\C)[C@@H](OC)C[C@@H]3CC[C@@H](C)[C@@](O)(O3)C(=O)C(=O)N3CCCC[C@H]3C(=O)O2)C[C@H]1OC", "note": "(stereo partly drawn) [Example 17, 42-O-(1-Ethoxy-ethyl)-rapamycin-(E)-27-O-(methyl)oxime]", "values": [{"measurement": "inhibition at 0.1 µM", "setting": "[1]", "result": 73, "unit": "%"}, {"measurement": "IC50", "setting": "[1]; [7]", "result": 30, "unit": "nM"}, {"measurement": "Skin Graft mean survival time (days ± SD)", "setting": "[2]", "result": "7.8 ± 0.4", "unit": "days"}]}
{"smiles": "CCCCNC(=O)O[C@@H]1CC[C@@H](C[C@@H](C)[C@@H]2C/C(=N/OC)[C@H](C)/C=C(\\C)[C@@H](O)[C@@H](OC)C(=O)[C@H](C)C[C@H](C)/C=C/C=C/C=C(\\C)[C@@H](OC)C[C@@H]3CC[C@@H](C)[C@@](O)(O3)C(=O)C(=O)N3CCCC[C@H]3C(=O)O2)C[C@H]1OC", "note": "[Example 18, Rapamycin (Z)-27-O-(methyl)oxime-42-ester with butylcarbamic acid]", "values": [{"measurement": "inhibition at 0.1 µM", "setting": "[1]", "result": 18, "unit": "%"}, {"measurement": "IC50", "setting": "[1]; [7]", "result": 279, "unit": "nM"}]}
{"smiles": "CO[C@H]1C[C@@H]2CC[C@@H](C)[C@@](O)(O2)C(=O)C(=O)N2CCCC[C@H]2C(=O)O[C@H]([C@H](C)C[C@@H]2CC[C@@H](O)[C@H](OC)C2)CC(=O)[C@H](C)/C=C(\\C)[C@@H](O)[C@@H](OC)C(=O)[C@H](C)C[C@H](C)/C=C/C=C/C=C/1C", "note": "[rapamycin]", "values": [{"measurement": "antitumor activity", "setting": "[3]", "result": "has been shown to have antitumor activity"}, {"measurement": "antifungal activity, particularly against Candida albicans", "setting": "[4]", "result": "found to have antifungal activity, particularly against Candida albicans, both in vitro and in vivo"}, {"measurement": "IC50", "setting": "[1]", "result": "0.4 to 9.8", "unit": "nM"}, {"measurement": "effect in the experimental allergic encephalomyelitis model", "setting": "[5]", "result": "effective in the experimental allergic encephalomyelitis model"}, {"measurement": "Skin Graft mean survival time (days ± SD)", "setting": "[2]", "result": "12.0 ± 1.7", "unit": "days"}, {"measurement": "inhibition of the formation of IgE-like antibodies", "setting": "[6]", "result": "effectively inhibited the formation of IgE-like antibodies"}]}
